{
  "source": "patent US20250387356A1",
  "about": "(SpringWorks Therapeutics, Inc., priority 2024, published 2025)",
  "key": {"[1]": {"test_system": "NF1-associated plexiform neurofibromas (PNs)", "test": "Phase 2b trial of mirdametinib in adult and pediatric patients: confirmed objective response by BICR volumetric MRI per REiNS criteria", "format": "in vivo, human", "experimental": "Study treatment was administered orally at a twice daily (BID) dose specified in the table below. Dosing was on a 28-day Cycle (4-week course) with a 3 week on/1 week off schedule. The treatment period will last for up to 24 Cycles followed by a 30-day Safety Follow-Up period.\nA partial response was defined as PN decrease ≥20% compared to baseline using centrally read MRI volumetric analysis.\nThe major efficacy outcome measure was confirmed objective response rate (ORR), defined as the percentage of patients with complete response (disappearance of the target PN) or confirmed partial response ([…]). Responses were assessed by blinded independent central review (BICR) using volumetric magnetic resonance imaging (MRI) analysis per Response Evaluation in Neurofibromatosis and Schwannomatosis (REiNS) criteria. A secondary efficacy objective was to determine the duration of response for patients who achieved a confirmed objective response."}, "[2]": {"test": "Mirdametinib pharmacokinetic parameters (Table A): exposure, absorption, food effect, distribution, elimination", "format": "in vivo", "conditions": "human, plasma, oral"}},
  "data": [
    {"smiles": "O=C(NOC[C@H](O)CO)c1ccc(F)c(F)c1Nc1ccc(I)cc1F", "note": "(single isomer, unassigned) [mirdametinib]", "values": [
      {"measurement": "ORR, also considering patients who achieved a confirmed objective response after cycle 24", "setting": "[1]; adults", "value": 45, "unit": "%"},
      {"measurement": "ORR, also considering patients who achieved a confirmed objective response after cycle 24", "setting": "[1]; pediatric patients", "value": 54, "unit": "%"},
      {"measurement": "clearance", "setting": "[2]; read-out: Apparent systemic clearance [Mean (% CV)] (converted)", "value": 106, "unit": "mL/min"},
      {"measurement": "Vd", "setting": "[2]; read-out: Apparent volume of distribution [Mean (% CV)]", "value": 255, "unit": "L"},
      {"measurement": "half-life", "setting": "[2]; read-out: Terminal elimination half-life [Mean (% CV)] (converted)", "value": 28, "unit": "h"}
    ]}
  ]
}
